Assays:
Urease [1] = target: T1, Urease (Canavalia ensiformis, UniProt P07374); test: Inhibition of jack bean urease using urea as substrate assessed as ammonia production after 15 mins by indophenol method
Urease [2] = target: T1, Urease; test: (§1) Mixed-type inhibition of jack bean urease using urea as substrate assessed as ammonia production after 15 mins by Lineweaver-Burk/Dixon plot analysis
[3] = target: Urease (Canavalia ensiformis) (UniProt P07374); test: as §1
Urease [4] = target: T1, Urease; test: (§2) Competitive inhibition of jack bean urease using urea as substrate assessed as ammonia production after 15 mins by Lineweaver-Burk/Dixon plot analysis
[5] = target: Urease (Canavalia ensiformis) (UniProt P07374); test: as §2
Urease [6] = target: T1, Urease; test: (§3) Non-competitive inhibition of jack bean urease using urea as substrate assessed as ammonia production after 15 mins by Lineweaver-Burk/Dixon plot analysis
[7] = target: Urease (Canavalia ensiformis) (UniProt P07374); test: as §3

T1 sequence (P07374 whole entry): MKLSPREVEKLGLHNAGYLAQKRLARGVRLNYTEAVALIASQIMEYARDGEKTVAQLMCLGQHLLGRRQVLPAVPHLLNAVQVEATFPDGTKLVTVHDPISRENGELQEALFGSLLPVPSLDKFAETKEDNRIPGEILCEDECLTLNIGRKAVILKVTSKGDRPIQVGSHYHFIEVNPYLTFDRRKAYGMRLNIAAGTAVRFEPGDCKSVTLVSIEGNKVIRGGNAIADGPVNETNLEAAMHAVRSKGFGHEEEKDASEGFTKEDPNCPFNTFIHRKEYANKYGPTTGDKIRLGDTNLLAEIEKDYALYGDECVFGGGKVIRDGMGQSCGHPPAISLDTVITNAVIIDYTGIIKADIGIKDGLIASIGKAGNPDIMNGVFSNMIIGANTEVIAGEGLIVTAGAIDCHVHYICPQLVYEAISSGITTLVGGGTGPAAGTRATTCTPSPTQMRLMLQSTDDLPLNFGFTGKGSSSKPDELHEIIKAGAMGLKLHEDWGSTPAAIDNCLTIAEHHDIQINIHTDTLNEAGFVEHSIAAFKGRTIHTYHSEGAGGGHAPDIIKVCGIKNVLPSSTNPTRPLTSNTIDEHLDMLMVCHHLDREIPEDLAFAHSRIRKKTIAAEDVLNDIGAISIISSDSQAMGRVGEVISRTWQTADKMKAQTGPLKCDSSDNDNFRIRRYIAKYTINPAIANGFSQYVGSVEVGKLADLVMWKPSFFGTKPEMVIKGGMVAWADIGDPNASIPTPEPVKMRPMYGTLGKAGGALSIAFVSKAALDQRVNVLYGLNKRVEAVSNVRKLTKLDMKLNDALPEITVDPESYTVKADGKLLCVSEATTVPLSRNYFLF
Chain of Urease (Canavalia ensiformis) (P07374 whole entry, looked up): as the sequence (P07374 whole entry) above

SMILES	IC50 (Urease [1]; read-out: IC50)	other results
S=C(Nc1ccccc1)Nc1ccc(Br)cc1	34.3 µM	–
Cc1cccnc1NC(=S)Nc1ccccc1	25.3 µM	–
S=C(Nc1ccc(Cl)cc1)Nc1cccc(Cl)c1	20.3 µM	Ki (Urease [2]): 18.1 µM; inhibition [3]: Dose-dependent effect
COc1cccc(NC(=S)Nc2cccc(Cl)c2)c1	24.5 µM	–
Cc1cccc(C)c1NC(=S)Nc1cccc(Cl)c1	27.4 µM	–
Cc1cccnc1NC(=S)Nc1cccc(Cl)c1	15.9 µM	–
S=C(Nc1cccc(Cl)c1)Nc1c(Cl)cccc1Cl	41 µM	–
S=C(NCc1ccco1)Nc1ccccc1	32.4 µM	–
S=C(NCc1ccncc1)Nc1cccc(Cl)c1	22.7 µM	–
COc1ccc(OC)c(NC(=S)Nc2ccccc2)c1	29.9 µM	–
Cc1nc(NC(=S)Nc2ccccc2)ccc1Br	82.7 µM	–
S=C(Nc1cccnc1)Nc1cccc(Cl)c1	24.5 µM	–
S=C(Nc1ccccc1)Nc1cccnc1	8.43 µM	Ki (Urease [4]): 8.6 µM; inhibition [5]: Dose-dependent effect
S=C(Nc1cccc(Cl)c1)Nc1cccc(Cl)c1	20 µM	Ki (Urease [2]): 18.1 µM; inhibition [3]: Dose-dependent effect
Cc1cccc(NC(=S)Nc2cccc(Cl)c2)c1	15 µM	Ki (Urease [2]): 15.7 µM; inhibition [3]: Dose-dependent effect
S=C(Nc1ccccc1)Nc1ccncc1	43.9 µM	–
Fc1ccc(NC(S)=Nc2cccc(Cl)c2)cc1	–	inhibition [3]: Dose-dependent effect
S=C(Nc1cccc(Cl)c1)Nc1ccc(Cl)cc1Cl	42.2 µM	–
S=C(Nc1ccccc1)Nc1ccccn1	23.4 µM	–
Cc1ccccc1NC(=S)Nc1cccc(Cl)c1	34.4 µM	–

SMILES	IC50 (Urease [1]; read-out: IC50)	other results
S=C(Nc1ccccc1)Nc1cccnc1Cl	–	IC50 (Urease [1]): Not Active
COc1ccc(NC(=S)Nc2cccc(Cl)c2)cc1	29.6 µM	–
COc1ccccc1NC(=S)Nc1cccc(Cl)c1	20.1 µM	–
S=C(Nc1cccc(Cl)c1)Nc1ccccc1Cl	22.2 µM	–
NC(N)=S [THIOUREA]	–	Ki (Urease [4]): 20 µM
Cc1ccc(NC(=S)Nc2cccc(Cl)c2)c(C)c1	24.1 µM	–
S=C(NCc1ccncc1)Nc1ccccc1	32.6 µM	–
Cc1ccc(NC(=S)Nc2cccc(Cl)c2)cc1	18.6 µM	Ki (Urease [6]): 12.1 µM; inhibition [7]: Dose-dependent effect
S=C(Nc1cccc(Cl)c1)Nc1cccc(Cl)c1Cl	27.1 µM	–
Fc1ccc(NC(=S)Nc2cccc(Cl)c2)cc1F	16.3 µM	–
Cc1ccc(Cl)cc1NC(=S)Nc1cccc(Cl)c1	20.1 µM	Ki (Urease [2]): 18.5 µM; inhibition [3]: Dose-dependent effect
Fc1ccc(NC(=S)Nc2cccc(Cl)c2)cc1	19.1 µM	Ki (Urease [2]): 16.8 µM
S=C(Nc1ccccc1)Nc1cccc(Br)c1	18.3 µM	Ki (Urease [2]): 15.6 µM; inhibition [3]: Dose-dependent effect
S=C(Nc1ccccc1)Nc1ncc(Cl)cc1Cl	37 µM	–
Cc1ccc(C)c(NC(=S)Nc2cccc(Cl)c2)c1	20.9 µM	Ki (Urease [2]): 19.3 µM; inhibition [3]: Dose-dependent effect
S=C(NCc1cccnc1)Nc1cccc(Cl)c1	23 µM	–
S=C(NCc1cccnc1)Nc1ccccc1	33.5 µM	–
S=C(Nc1cccc(Cl)c1)Nc1cccnc1Cl	–	IC50 (Urease [1]): Not Active
S=C(Nc1cccc(Cl)c1)Nc1ccc(Cl)c(Cl)c1	11 µM	Ki (Urease [4]): 11.7 µM; inhibition [5]: Dose-dependent effect
Fc1ccc(NC(=S)Nc2ccccc2)c(F)c1	24.3 µM	–

Reference: ChEMBL document CHEMBL3120147, “Synthesis and in vitro urease inhibitory activity of N,N'-disubstituted thioureas” (Eur J Med Chem, 2014)
